Measurements reported in patent US6613718B2, “Aryl ether derivatives and processes for their preparation and herbicidal and desiccant compositions containing them” (Ishihara Sangyo Kaisha, Ltd., priority 2001, dated 2003).

Tests used:
Assay type in all cases: in vivo
Settings in all cases: 14 days after application
[1] = test system: green foxtail (Setaria viridis, SETVI); experiment: Pre-emerge greenhouse herbicide activity screening, phytotoxicity rating
Text: (§1) A standard greenhouse herbicide activity screening system was used to evaluate the herbicidal efficacy and crop safety of these test compounds. Seven broadleaf weed species including redroot pigweed (Amaranthus retroflexus, AMARE), velvetleaf (Abutilon theophrasti, ABUTH), sicklepod (Cassia obtusifolia, CASOB), ivyleaf morningglory (Ipomoea hederacea, IPOHE), lambsquarters (Chenopodium album, CHEAL), common ragweed (Ambrosia artemisiifolia L., AMBEL), and cocklebur (Xanthium strumarium, XANST) were used as test species. Four grass weed species including green foxtail (Setaria viridis, SETVI), barnyardgrass (Echinochloa crus-galli, ECHCG), johnsongrass (Sorghum halepense, SORHA), and large crabgrass (Digitaria sanguinalis, DIGSA) were also used. In addition, three crop species, field corn (Zea mays L., var. Dekalb 535, CORN), soybean (Glycine max L., var. Pella 86, SOY), and upland rice (Oryza sp., var.Tebonnet, RICE) were included.
(§2) All plants were grown in 10 cm square plastic pots which were filled with a sandy loam soil mix. For pre-emerge tests, seeds were planted one day prior to application of the test compounds. For post-emerge tests, seeds were planted 8-21 days prior to the test to allow emergence and good foliage development prior to application of the test substances. At the time of the post-emerge application, plants of all species were usually at the 2-3 leaf stage of development.
(§3) All test compounds were dissolved in acetone and applied to the test units in a volume of 187 1/ha. Test materials were applied at rates ranging from 15 g ai/ha to 1000 g ai/ha using a track sprayer equipped with a TJ8001E even flow flat fan spray nozzle. Plants were arranged on a shelf so that the top of the canopy (post-emerge) or top of the soil surface (pre-emerge) was 40-45 cm below the nozzle. Pressurized air was used to force the test solution through the nozzle as it was mechanically advanced (via electrically driven chain drive) over the top of all test plants/pots. This application simulates a typical commercial field herbicide application.
(§4) In the post-emerge test, a commercial non-ionic surfactant was also included (0.25% v/v) to enhance wetting of the leaf surfaces of target plants. Immediately after application, test units of the pre-emerge applications were watered at the soil surface to incorporate the test materials. Subsequently, these test units were bottom-watered. Post-emerge test units were always bottom-watered.
(§5) At 14 days after application of the test materials, phytotoxicity ratings were recorded. A rating scale of 0-100 was used as previously described in Research Methods in Weed Science, 2nd edition, B. Truelove, Ed., Southern Weed Science Society, Auburn University, Auburn, Ala., 1977. Briefly, “0” corresponds to no damage and “100” corresponds to complete death of all plants in the test unit. This scale was used both to determine efficacy against weed species and damage to crop species. Herbicide activity data for various compounds of this invention, which are shown by compound No. in Tables I-VI, are shown in Tables VIII-IX.

[2] = test system: barnyardgrass (Echinochloa crus-galli, ECHCG); experiment: as above
Text: as §1, §2, §3, §4, §5

[3] = test system: large crabgrass (Digitaria sanguinalis, DIGSA); experiment: as above
Text: as §1, §2, §3, §4, §5

[4] = test system: common ragweed (Ambrosia artemisiifolia L., AMBEL); experiment: as above
Text: as §1, §2, §3, §4, §5

[5] = test system: redroot pigweed (Amaranthus retroflexus, AMARE); experiment: as above
Text: as §1, §2, §3, §4, §5

[6] = test system: velvetleaf (Abutilon theophrasti, ABUTH); experiment: as above
Text: as §1, §2, §3, §4, §5

[7] = test system: ivyleaf morningglory (Ipomoea hederacea, IPOHE); experiment: as above
Text: as §1, §2, §3, §4, §5

[8] = test system: sicklepod (Cassia obtusifolia, CASOB); experiment: as above
Text: as §1, §2, §3, §4, §5

[9] = test system: johnsongrass (Sorghum halepense, SORHA); experiment: as above
Text: as §1, §2, §3, §4, §5

[10] = test system: lambsquarters (Chenopodium album, CHEAL); experiment: as above
Text: as §1, §2, §3, §4, §5

[11] = test system: field corn (Zea mays L., var. Dekalb 535, CORN); experiment: Post-emerge greenhouse screening, crop safety / corn selectivity (phytotoxicity rating)
Text: as §1, §2, §3, §4, §5

[12] = test system: soybean (Glycine max L., var. Pella 86, SOY); experiment: Post-emerge greenhouse screening, crop safety (phytotoxicity rating)
Text: as §1, §2, §3, §4, §5

[13] = test system: upland rice (Oryza sp., var.Tebonnet, RICE); experiment: as above
Text: as §1, §2, §3, §4, §5

[14] = test system: soybean (Glycine max L., var. Pella 86, SOY); experiment: Pre-emerge greenhouse screening, crop safety (phytotoxicity rating)
Text: as §1, §2, §3, §4, §5

[15] = test system: field corn (Zea mays L., var. Dekalb 535, CORN); experiment: as above
Text: as §1, §2, §3, §4, §5

[16] = test system: upland rice (Oryza sp., var.Tebonnet, RICE); experiment: as above
Text: as §1, §2, §3, §4, §5

[17] = test system: green foxtail (Setaria viridis, SETVI); experiment: Post-emerge greenhouse herbicide activity screening, phytotoxicity rating
Text: as §1, §2, §3, §4, §5

[18] = test system: barnyardgrass (Echinochloa crus-galli, ECHCG); experiment: as above
Text: as §1, §2, §3, §4, §5

[19] = test system: large crabgrass (Digitaria sanguinalis, DIGSA); experiment: as above
Text: as §1, §2, §3, §4, §5

[20] = test system: common ragweed (Ambrosia artemisiifolia L., AMBEL); experiment: as above
Text: as §1, §2, §3, §4, §5

[21] = test system: redroot pigweed (Amaranthus retroflexus, AMARE); experiment: as above
Text: as §1, §2, §3, §4, §5

[22] = test system: velvetleaf (Abutilon theophrasti, ABUTH); experiment: as above
Text: as §1, §2, §3, §4, §5

[23] = test system: ivyleaf morningglory (Ipomoea hederacea, IPOHE); experiment: as above
Text: as §1, §2, §3, §4, §5

[24] = test system: sicklepod (Cassia obtusifolia, CASOB); experiment: as above
Text: as §1, §2, §3, §4, §5

[25] = test system: johnsongrass (Sorghum halepense, SORHA); experiment: as above
Text: as §1, §2, §3, §4, §5

[26] = test system: lambsquarters (Chenopodium album, CHEAL); experiment: as above
Text: as §1, §2, §3, §4, §5

For `Cn1c(C(F)(F)F)cc(=O)n(-c2cc(Oc3ncccc3C(F)(F)F)c(Cl)cc2F)c1=S` [Compound 1-15], which “SETVI phytotoxicity rating (0-100 scale)” value ([1]; 125 g ai/ha) is on record?
Its value is 100.

What about the “SETVI phytotoxicity rating (0-100 scale)” value ([1]; 250 g ai/ha) of the same molecule?
The value was 100.

And the “ECHCG phytotoxicity rating (0-100 scale)” value ([2]; 125 g ai/ha)?
The value was 50.

And the “ECHCG phytotoxicity rating (0-100 scale)” value ([2]; 250 g ai/ha)?
Its value is 65.

And the “DIGSA phytotoxicity rating (0-100 scale)” value ([3]; 125 g ai/ha)?
Its value is 99.

And the “DIGSA phytotoxicity rating (0-100 scale)” value ([3]; 250 g ai/ha)?
Its value is 100.

And the “AMBEL phytotoxicity rating (0-100 scale)” value ([4]; 125 g ai/ha)?
The value was 75.

And the “AMBEL phytotoxicity rating (0-100 scale)” value ([4]; 250 g ai/ha)?
The value was 90.

And the “AMARE phytotoxicity rating (0-100 scale)” value ([5]; 125 g ai/ha)?
The value was 100.

What about the “AMARE phytotoxicity rating (0-100 scale)” value ([5]; 250 g ai/ha) of the same molecule?
Its value is 100.

What about the “ABUTH phytotoxicity rating (0-100 scale)” value ([6]; 125 g ai/ha) of the same molecule?
Its value is 100.

And the “ABUTH phytotoxicity rating (0-100 scale)” value ([6]; 250 g ai/ha)?
The value was 100.

What about the “IPOHE phytotoxicity rating (0-100 scale)” value ([7]; 125 g ai/ha) of the same molecule?
The value was 95.

And the “IPOHE phytotoxicity rating (0-100 scale)” value ([7]; 250 g ai/ha)?
The value was 100.

What about the “CASOB phytotoxicity rating (0-100 scale)” value ([8]; 125 g ai/ha) of the same molecule?
The value was 55.

What about the “CASOB phytotoxicity rating (0-100 scale)” value ([8]; 250 g ai/ha) of the same molecule?
Its value is 85.

What about the “SORHA phytotoxicity rating (0-100 scale)” value ([9]; 125 g ai/ha) of the same molecule?
The value was 60.

What about the “SORHA phytotoxicity rating (0-100 scale)” value ([9]; 250 g ai/ha) of the same molecule?
Its value is 98.

And the “CHEAL phytotoxicity rating (0-100 scale)” value ([10]; 125 g ai/ha)?
Its value is 100.

What about the “CHEAL phytotoxicity rating (0-100 scale)” value ([10]; 250 g ai/ha) of the same molecule?
The value was 100.

And the “CORN crop damage, phytotoxicity rating (0-100 scale)” value (“CORN crop damage” below) ([11]; 125 g ai/ha)?
The value was 5.

And the “CORN crop damage” value ([11]; 250 g ai/ha)?
The value was 5.

What about the “SOY crop damage, phytotoxicity rating (0-100 scale)” value (shortened to “SOY crop damage”) ([12]; 125 g ai/ha) of the same molecule?
The value was 10.

And the “SOY crop damage” value ([12]; 250 g ai/ha)?
The value was 10.

What about the “RICE crop damage, phytotoxicity rating (0-100 scale)” value (“RICE crop damage” below) ([13]; 125 g ai/ha) of the same molecule?
Its value is 0.

And the “RICE crop damage” value ([13]; 250 g ai/ha)?
Its value is 0.

What about the “SOY crop damage” value ([14]; 125 g ai/ha) of the same molecule?
The value was 0.

And the “SOY crop damage” value ([14]; 250 g ai/ha)?
The value was 35.

What about the “CORN crop damage” value ([15]; 125 g ai/ha) of the same molecule?
The value was 8.

What about the “CORN crop damage” value ([15]; 250 g ai/ha) of the same molecule?
The value was 8.

What about the “RICE crop damage” value ([16]; 125 g ai/ha) of the same molecule?
The value was 0.

And the “RICE crop damage” value ([16]; 250 g ai/ha)?
The value was 0.

What about the “SETVI phytotoxicity rating (0-100 scale)” value ([17]; 125 g ai/ha) of the same molecule?
Its value is 0.

And the “SETVI phytotoxicity rating (0-100 scale)” value ([17]; 250 g ai/ha)?
Its value is 0.

And the “ECHCG phytotoxicity rating (0-100 scale)” value ([18]; 125 g ai/ha)?
Its value is 0.

And the “ECHCG phytotoxicity rating (0-100 scale)” value ([18]; 250 g ai/ha)?
The value was 0.

And the “DIGSA phytotoxicity rating (0-100 scale)” value ([19]; 125 g ai/ha)?
Its value is 0.

What about the “DIGSA phytotoxicity rating (0-100 scale)” value ([19]; 250 g ai/ha) of the same molecule?
The value was 0.

What about the “AMBEL phytotoxicity rating (0-100 scale)” value ([20]; 125 g ai/ha) of the same molecule?
The value was 55.

And the “AMBEL phytotoxicity rating (0-100 scale)” value ([20]; 250 g ai/ha)?
The value was 55.

And the “AMARE phytotoxicity rating (0-100 scale)” value ([21]; 125 g ai/ha)?
Its value is 90.

What about the “AMARE phytotoxicity rating (0-100 scale)” value ([21]; 250 g ai/ha) of the same molecule?
Its value is 90.

What about the “ABUTH phytotoxicity rating (0-100 scale)” value ([22]; 125 g ai/ha) of the same molecule?
Its value is 95.

What about the “ABUTH phytotoxicity rating (0-100 scale)” value ([22]; 250 g ai/ha) of the same molecule?
The value was 95.

And the “IPOHE phytotoxicity rating (0-100 scale)” value ([23]; 125 g ai/ha)?
Its value is 75.

And the “IPOHE phytotoxicity rating (0-100 scale)” value ([23]; 250 g ai/ha)?
Its value is 100.

What about the “CASOB phytotoxicity rating (0-100 scale)” value ([24]; 125 g ai/ha) of the same molecule?
Its value is 60.

What about the “CASOB phytotoxicity rating (0-100 scale)” value ([24]; 250 g ai/ha) of the same molecule?
The value was 65.

And the “SORHA phytotoxicity rating (0-100 scale)” value ([25]; 125 g ai/ha)?
Its value is 0.

What about the “SORHA phytotoxicity rating (0-100 scale)” value ([25]; 250 g ai/ha) of the same molecule?
Its value is 0.

And the “CHEAL phytotoxicity rating (0-100 scale)” value ([26]; 125 g ai/ha)?
The value was 100.

And the “CHEAL phytotoxicity rating (0-100 scale)” value ([26]; 250 g ai/ha)?
Its value is 100.
